According to patent publication US20250382574A1, “CELL CULTURE METHOD” (Takeda Pharmaceutical Company Limited, priority 2022, published 2025):
Where two headings read alike, the source gives them in different places.

What was measured:
[1] = system: iPS cell-derived CAR-T cells; settings: 0.3 mM boric acid added to 1% FBS-containing medium; FIG. 1
Source text: Then, on the fifth day of culture, some of the cells were recovered from G-Rex (registered trademark) 10M and the cells were counted, and the medium was replaced with the respective medium. On the sixth day of culture, some of the cells were recovered from G-Rex (registered trademark) 10M and the cells were counted. […] On the 12th and 14th days of culture, some of the cells were similarly collected from the G-Rex (registered trademark) 24-well plate, counted, and the medium was replaced with each medium.

[2] = system: iPS cell-derived CAR-T cells; assay: Proliferation test, ITS-X and taurine added to 0.3 mM boric acid-containing serum-free medium; format: cell-based; settings: for viability (%): serum-free expansion medium, boric acid 0.3 mM
Procedure: A total of five types of expansion culture media were prepared: Advanced DMEM/F12 medium (Thermo Fisher) containing additives shown in the “expansion culture medium” column in Table 4, and said medium further added with either 0.3 mM boric acid (Sigma-Aldrich), 0.3 mM boric acid and 1×ITS-X ((Insulin-Transferrin-Selenium-Ethanolamine Supplements) Gibco), 0.3 mM boric acid and 1×ITS-X and 1 mM taurine (Sigma-Aldrich), or 0.3 mM boric acid and 1×ITS-X and 3 mM taurine (medium supplemented with only additives in Table 4, medium supplemented with additives in Table 4+0.3 mM boric acid, medium supplemented with additives in Table 4+0.3 mM boric acid+ITS-X, medium supplemented with additives in Table 4+0.3 mM boric acid+ITS-X+1 mM taurine, medium supplemented with additives in Table 4+0.3 mM boric acid+ITS-X+3 mM taurine). After 3 days of activation culture, the cells were collected from the T225 flask and suspended in each of the five types of expansion culture media at 40,000 cells/mL, and cultured under 5% CO2/37° C. using G-Rex (registered trademark) 10M (Wilson Wolf). Then, on the fifth day of culture, some of the cells were recovered from G-Rex (registered trademark) 10M and the cells were counted, and the medium was replaced with the respective medium. On the sixth day of culture, some of the cells were recovered from G-Rex (registered trademark) 10M and the cells were counted. On the 7th and 10th days of culture, some of the cells were recovered from the plate, counted, and seeded onto a G-Rex (registered trademark) 24-well plate (Wilson Wolf) containing each medium at 50,000 cells/mL. On the 12th and 14th days of culture, some of the cells were similarly collected from the G-Rex (registered trademark) 24-well plate, counted, and the medium was replaced with each medium.
In the expansion culture of item 5 in Example 4, the cell number and viability of iPS cell-derived CAR-T cells were measured on days 3, 5, 6, 7, 10, 12, and 14 of culture.

[3] = system: iPS cell-derived CAR-T cells; settings: boric acid concentration range of 0.2 mM to 0.9 mM, serum-free medium; FIG. 3
Procedure: After 3 days of activation culture, the cells were collected from the T225 flask and suspended in each of the five types of expansion culture media at 50,000 cells/mL, and cultured under 5% CO2/37° C. using G-Rex (registered trademark) 24-well plate (Wilson Wolf). Then, on the fifth day of culture, some of the cells were recovered from G-Rex (registered trademark) 24-well plate and the cells were counted, and the medium was replaced with the respective medium. On the 7th day of culture, the cells were counted by a similar method, seeded in a fresh G-Rex (registered trademark) 24-well plate at 50,000 cells/mL, and cultured in each medium. On the 10th and 12th days of culture, some of the cells were similarly collected from the plate, counted, and the medium was replaced with each medium.

[4] = system: iPS cell-derived CAR-T cells; settings: 0.3 mM boric acid added to serum-free medium; FIG. 2
Procedure: After 3 days of activation culture, the cells were collected from the T225 flask and suspended in each of the two types of expansion culture media at 40,000 cells/mL, and cultured under 5% CO2/37° C. using G-Rex (registered trademark) 10M (Wilson Wolf). Then, on the fifth day of culture, some of the cells were collected from G-Rex (registered trademark) 10M and counted, and the medium was replaced with each medium. On the 7th and 10th days of culture, the cells were counted by a similar method, seeded in a G-Rex (registered trademark) 24-well plate at 50, 000 cells/mL, and cultured in each medium. On the 12th and 14th days of culture, some of the cells were similarly collected from the plate, counted, and the medium was replaced with each medium.

[5] = system: human-derived primary T cell-derived CAR-T cells; settings: boric acid 0.3 mM added to serum-free medium (BM220720); FIG. 5

Structure (SMILES) | proliferation (cell proliferation fold from day 0 of expansion culture) [1] | viability (%) ([2]; Day 5) | viability (%) ([2]; Day 6) | viability (%) ([2]; Day 7) | viability (%) ([2]; Day 10) | viability (%) ([2]; Day 12) | viability (%) ([2]; Day 14) | cell viability [3] | proliferation (cell proliferation fold from day 0 of expansion culture) [4] | proliferation (cell proliferation fold from day 0 of expansion culture) [5] | maximum difference (%) in viability between (3): without addition of Taurine and (4) or (5): with addition of Taurine ([2]; Day 5) | maximum difference (%) in viability between (3): without addition of Taurine and (4) or (5): with addition of Taurine ([2]; Day 6) | maximum difference (%) in viability between (3): without addition of Taurine and (4) or (5): with addition of Taurine ([2]; Day 7) | maximum difference (%) in viability between (3): without addition of Taurine and (4) or (5): with addition of Taurine ([2]; Day 10) | maximum difference (%) in viability between (3): without addition of Taurine and (4) or (5): with addition of Taurine ([2]; Day 12) | maximum difference (%) in viability between (3): without addition of Taurine and (4) or (5): with addition of Taurine ([2]; Day 14)
OB(O)O [Boric acid, boric acid] | promoted | 88.7% | 88.6% | 87.5% | 90.3% | 90.4% | 88.3% | not influenced | promoted | promoted |  |  |  |  |  | 
NCCS(=O)(=O)O [Taurine, taurine] |  |  |  |  |  |  |  |  |  |  | 2.9% | 1.6% | 2.5% | 3.7% | 1.9% | 1.3%
